# From patent publication US20070060478A1, “Herbicidal mixtures comprising a safener” (BASF AKTIENGESELLSCHAFT, priority 2005, published 2007)
# Experiments:
# Assay type in all cases: in vivo
# Conditions in all cases: 50 g/ha, applied alone
# spring wheat = assay: post-emergence application, damage to crop plants (damage scale 0% to 100%)
# Description: (§1) The mixtures according to the invention were applied pre- or post-emergence (foliar treatment). The herbicidal compounds of component B) and of component C) were applied in the formulation in which they are present as commercially available product.
# (§2) In the case of the field trials, application was effected with the aid of a mobile plot sprayer.
# (§3) The test period extended over 3 to 8 weeks, and the stands were also observed at later points in time.
# (§4) Damage by the herbicidal compositions was evaluated with reference to a scale of 0% to 100% in comparison with untreated control plots. 0 means no damage and 100 means complete destruction of the plants.
# durum wheat = assay: as above
# Description: as §1, §2, §3, §4
# green foxtail = assay: post-emergence application, control of unwanted plants (damage scale 0% to 100%)
# Description: as §1, §2, §3, §4
# pigweed = assay: as above
# Description: as §1, §2, §3, §4
# wild oat = assay: as above
# Description: as §1, §2, §3, §4
structure (smiles),measurement,setting,value
"Cc1c(C(=O)c2cnn(C)c2O)ccc(S(C)(=O)=O)c1C1=NOCC1 [4-[2-methyl-3-(4,5-dihydro-isoxazol-3-yl)-4-methylsulfonyl-benzoyl]-1-methyl-5-hydroxy-1H-pyrazole]",damages in crop plants,spring wheat,causes damages
same,damages in crop plants,durum wheat,causes damages
same,control of unwanted plants,green foxtail,in an excellent manner
same,control of unwanted plants,pigweed,in an excellent manner
same,control of unwanted plants,wild oat,in an excellent manner
